Measurements published in US8143408B2, “N-(8-heteroaryltetrahydronaphtalene-2yl) or N-(5-heteroarylchromane-3-yl) carboxamide derivatives for the treatment of pain” (AstraZeneca AB, priority 2007, dated 2012).

target: T1, Nav1.7 voltage-gated sodium channel (Homo sapiens, UniProt Q15858); test: Whole-cell voltage clamp electrophysiology assay; type: cell-based; details: cells stably expressing the voltage-gated sodium channel of interest
T1 construct: Gene(s) encoding the full-length protein of the voltage-gated sodium channel of interest are cloned and expressed; expressed in transfected cells
Procedure, shortened: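 Cells expressing full-length channel, exposed to drug by integrated pipetting on automated patch-clamp platforms or by microperfusion in conventional whole-cell patch clamp. Channels activated by a voltage protocol depolarising from a defined holding potential; buffers per platform manufacturer.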

T1 sequence (Q15858 whole entry): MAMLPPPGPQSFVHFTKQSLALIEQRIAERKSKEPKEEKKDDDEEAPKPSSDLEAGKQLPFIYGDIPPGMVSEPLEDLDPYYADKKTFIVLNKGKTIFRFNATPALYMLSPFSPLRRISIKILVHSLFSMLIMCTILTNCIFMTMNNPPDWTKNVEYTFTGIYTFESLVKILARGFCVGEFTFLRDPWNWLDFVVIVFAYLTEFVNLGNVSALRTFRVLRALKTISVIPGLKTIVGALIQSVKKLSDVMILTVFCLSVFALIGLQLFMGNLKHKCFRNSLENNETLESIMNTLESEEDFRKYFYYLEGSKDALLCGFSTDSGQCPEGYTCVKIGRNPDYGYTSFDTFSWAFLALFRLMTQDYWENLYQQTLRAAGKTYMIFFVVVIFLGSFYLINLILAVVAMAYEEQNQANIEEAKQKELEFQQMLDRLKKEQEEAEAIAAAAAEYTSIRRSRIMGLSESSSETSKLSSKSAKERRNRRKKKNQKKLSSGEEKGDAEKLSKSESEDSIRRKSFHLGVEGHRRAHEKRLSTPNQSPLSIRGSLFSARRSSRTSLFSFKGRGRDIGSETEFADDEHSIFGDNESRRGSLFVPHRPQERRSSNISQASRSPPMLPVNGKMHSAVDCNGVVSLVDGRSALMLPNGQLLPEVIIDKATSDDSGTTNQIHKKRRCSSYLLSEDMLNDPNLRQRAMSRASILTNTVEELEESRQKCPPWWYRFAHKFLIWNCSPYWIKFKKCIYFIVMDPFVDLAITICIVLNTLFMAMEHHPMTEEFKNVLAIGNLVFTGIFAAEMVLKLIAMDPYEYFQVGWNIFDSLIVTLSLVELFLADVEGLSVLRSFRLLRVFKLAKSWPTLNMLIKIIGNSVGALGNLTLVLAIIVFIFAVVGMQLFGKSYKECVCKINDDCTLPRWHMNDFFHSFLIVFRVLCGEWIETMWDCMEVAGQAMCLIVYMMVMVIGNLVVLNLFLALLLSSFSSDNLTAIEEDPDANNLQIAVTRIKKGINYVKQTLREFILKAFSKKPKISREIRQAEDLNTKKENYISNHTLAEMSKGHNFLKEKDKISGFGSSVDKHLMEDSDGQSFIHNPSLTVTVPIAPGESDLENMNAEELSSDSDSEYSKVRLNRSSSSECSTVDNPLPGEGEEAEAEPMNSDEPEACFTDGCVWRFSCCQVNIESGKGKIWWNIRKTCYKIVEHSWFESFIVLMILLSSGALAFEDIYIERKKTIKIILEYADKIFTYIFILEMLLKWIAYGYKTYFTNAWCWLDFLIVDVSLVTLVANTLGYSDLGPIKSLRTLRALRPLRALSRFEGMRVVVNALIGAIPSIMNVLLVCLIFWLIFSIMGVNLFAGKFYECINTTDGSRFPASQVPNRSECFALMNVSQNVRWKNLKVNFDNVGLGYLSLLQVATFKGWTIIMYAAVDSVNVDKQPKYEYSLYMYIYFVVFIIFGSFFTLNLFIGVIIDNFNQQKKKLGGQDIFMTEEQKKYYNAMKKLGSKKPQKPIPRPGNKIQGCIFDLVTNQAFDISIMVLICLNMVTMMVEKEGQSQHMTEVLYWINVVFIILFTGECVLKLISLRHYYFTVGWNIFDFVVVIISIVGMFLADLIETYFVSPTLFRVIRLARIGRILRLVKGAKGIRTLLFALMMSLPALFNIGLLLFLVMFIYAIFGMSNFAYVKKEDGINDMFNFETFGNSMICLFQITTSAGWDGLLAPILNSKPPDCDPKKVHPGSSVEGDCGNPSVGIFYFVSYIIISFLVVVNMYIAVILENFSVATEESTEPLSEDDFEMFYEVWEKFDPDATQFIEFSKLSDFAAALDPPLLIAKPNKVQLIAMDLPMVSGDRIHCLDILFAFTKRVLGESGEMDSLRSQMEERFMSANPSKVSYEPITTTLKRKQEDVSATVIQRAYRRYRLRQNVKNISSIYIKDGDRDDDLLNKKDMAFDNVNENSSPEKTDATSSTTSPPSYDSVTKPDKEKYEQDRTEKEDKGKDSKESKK

SMILES | IC50 [nM]
O=C(N[C@@H]1COc2cccc(-c3ccc(CO)nc3)c2C1)c1ccc(OCCOCC(F)(F)F)nc1 [Example 210, N-{(3S)-5-[6-(hydroxymethyl)pyridin-3-yl]-3,4-dihydro-2H-chromen-3-yl}-6-[2-(2,2,2-trifluoroethoxy)ethoxy]nicotinamide] | 100
O=C(N[C@@H]1COc2cccc(-c3ccc(CO)nc3)c2C1)c1ccc(OCCCF)nc1 [Example 211, 6-(3-fluoropropoxy)-N-{(3S)-5-[6-(hydroxymethyl)pyridin-3-yl]-3,4-dihydro-2H-chromen-3-yl}nicotinamide] | 200
O=C(N[C@@H]1COc2cccc(-c3ccc(CO)nc3)c2C1)c1ccc(OCC(F)(F)F)nc1 [Example 212, N-{(3S)-5-[6-(hydroxymethyl)pyridin-3-yl]-3,4-dihydro-2H-chromen-3-yl}-6-(2,2,2-trifluoroethoxy)nicotinamide] | 100
O=C(N[C@@H]1COc2cccc(-c3cnc(CO)cn3)c2C1)c1ccc(OCCOCC(F)(F)F)nc1 [Example 213, N-{(3S)-5-[5-(hydroxymethyl)pyrazin-2-yl]-3,4-dihydro-2H-chromen-3-yl}-6-[2-(2,2,2-trifluoroethoxy)ethoxy]nicotinamide] | 316
